Source: ChEMBL document CHEMBL5257033, “Pyrrolidinone and pyrrolidine derivatives: Evaluation as inhibitors of InhA and Mycobacterium tuberculosis” (Eur J Med Chem, 2016)
≈ marks a conversion by molar mass, not a printed value. Where “and” joins values, the source holds several entries; their conditions need not be identical. Identical values can stand only once. Calls of active or inactive are those of the source. The rule behind the calls is not given here.

Key:
[1] = tested on: Mycolicibacterium smegmatis; test: Antimycobacterial activity against Mycobacterium smegmatis MC2 155 assessed as inhibition of bacterial growth at 2 uM incubated for 16 hrs relative to control; type: functional
[2] = tested on: Mycolicibacterium smegmatis; test: Antimycobacterial activity against Mycobacterium smegmatis MC2 155 assessed as inhibition of bacterial growth at 5 uM incubated for 16 hrs relative to control; type: functional
[3] = tested on: Mycolicibacterium smegmatis; test: Antimycobacterial activity against Mycobacterium smegmatis MC2 155 assessed as inhibition of bacterial growth at 10 uM incubated for 16 hrs relative to control; type: functional
[4] = tested on: Mycolicibacterium smegmatis; test: Disruption of trans-membrane electrical charge gradient of proton motive force in Mycobacterium smegmatis at 30 uM by DiSC3(5)-probe based fluorescence assay; type: functional, organism-based
[5] = tested on: Mycobacterium tuberculosis; test: Antimycobacterial activity against wild type Mycobacterium tuberculosis H37Rv assessed as bacterial growth inhibition measured after 21 days by microbroth dilution method; type: functional; details: for MIC: 504 h, time 21 day
MRC5 = test: (§1) Cytotoxicity against human MRC5 cells assessed as reduction in cell number measured after 72 hrs by Hoechst 33342 staining based microscopic analysis; type: toxicity; details: mrc5, 72 h
[6] = biological target: T1, Enoyl-[acyl-carrier-protein] reductase [NADH] (Mycobacterium tuberculosis) (UniProt P9WGR1); test: Inhibition of Mycobacterium tuberculosis InhA at 50 uM using trans-2-dodecenoyl-coenzyme A as substrate in presence of NADH
T1 sequence (whole entry): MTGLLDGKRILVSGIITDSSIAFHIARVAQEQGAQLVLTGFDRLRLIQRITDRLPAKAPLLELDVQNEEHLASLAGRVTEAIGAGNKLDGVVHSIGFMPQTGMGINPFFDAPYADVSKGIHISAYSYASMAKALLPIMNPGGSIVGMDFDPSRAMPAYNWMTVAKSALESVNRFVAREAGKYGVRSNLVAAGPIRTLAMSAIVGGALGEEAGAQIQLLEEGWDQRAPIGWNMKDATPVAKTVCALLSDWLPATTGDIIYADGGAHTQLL

[7] = biological target: T1, Enoyl-[acyl-carrier-protein] reductase [NADH] (Mycobacterium tuberculosis); test: Inhibition of Mycobacterium tuberculosis InhA at 5 uM using trans-2-dodecenoyl-Coenzyme A as substrate in presence of NADH relative to control
[8] = as §1; type: toxicity; details: MRC5 cells, read-out: LD50
[9] = tested on: Mycobacterium tuberculosis; test: Antimycobacterial activity against 14C acetate-labeled Mycobacterium tuberculosis H37Ra assessed as inhibition of bacterial growth at 42 uM incubated for 24 hrs by autoradiography based TLC analysis relative to control; type: functional
[10] = tested on: Mycobacterium tuberculosis; test: Antimycobacterial activity against 14C acetate-labeled Mycobacterium tuberculosis H37Ra assessed as inhibition of bacterial growth at 84 uM incubated for 24 hrs by autoradiography based TLC analysis relative to control; type: functional; details: AT84
[11] = tested on: Mycobacterium tuberculosis; test: Antimycobacterial activity against 14C acetate-labeled Mycobacterium tuberculosis H37Ra assessed as reduction in trehalose dimycolates level at 42 to 84 uM incubated for 24 hrs by autoradiography based TLC analysis; type: functional, organism-based; details: dose 42-84 µM
[12] = tested on: Mycobacterium tuberculosis; test: Antimycobacterial activity against 14C acetate-labeled Mycobacterium tuberculosis H37Ra assessed as reduction in trehalose monomycolates level at 42 to 84 uM incubated for 24 hrs by autoradiography based TLC analysis; type: functional, organism-based; details: dose 42-84 µM
[13] = tested on: Mycobacterium tuberculosis; test: Antimycobacterial activity against 14C acetate-labeled Mycobacterium tuberculosis H37Ra assessed as reduction in cell wall bound mycolic acid level at 42 to 84 uM incubated for 24 hrs by autoradiography based TLC analysis; type: functional, organism-based; details: dose 42-84 µM
[14] = tested on: Mycolicibacterium smegmatis; test: Antimycobacterial activity against Mycobacterium smegmatis MC2 155 assessed as inhibition of bacterial growth at 16.8 uM incubated for 16 hrs relative to control; type: functional
[15] = tested on: Mycolicibacterium smegmatis; test: Antimycobacterial activity against Mycobacterium smegmatis MC2 155 assessed as reduction in trehalose monomycolates level at 16.8 uM incubated for 16 hrs by TLC analysis; type: functional, organism-based
[16] = tested on: Mycolicibacterium smegmatis; test: Antimycobacterial activity against Mycobacterium smegmatis MC2 155 assessed as reduction in cell wall bound mycolic acid methyl esters at 16.8 uM incubated for 16 hrs by TLC analysis; type: functional, organism-based
[17] = tested on: Mycolicibacterium smegmatis; test: Antimycobacterial activity against Mycobacterium smegmatis MC2 155 assessed as reduction in trehalose dimycolates level at 16.8 uM incubated for 16 hrs by TLC analysis; type: functional, organism-based
[18] = tested on: Mycolicibacterium smegmatis; test: Antimycobacterial activity against Mycobacterium smegmatis MC2 155 assessed as reduction in phosphatidylethanolamine synthesis at 16.8 uM incubated for 16 hrs by TLC analysis; type: functional, organism-based
[19] = tested on: Mycolicibacterium smegmatis; test: Disruption of trans-membrane electrical charge gradient of proton motive force in Mycobacterium smegmatis up to 280 uM by DiSC3(5)-probe based fluorescence assay; type: functional, organism-based
Escherichia coli [20] = test: Antibacterial activity against Escherichia coli BL21(DE3) assessed as inhibition of bacterial growth incubated for 4 hrs; type: functional, organism-based; details: dose 35-140 µM
Escherichia coli [21] = test: Antibacterial activity against Escherichia coli BL21(DE3) assessed as reduction in phosphatidylethanolamine incubated for 4 hrs by TLC analysis; type: functional, organism-based
[22] = tested on: Mycolicibacterium smegmatis; test: Antimycobacterial activity against Mycobacterium smegmatis MC2 155 assessed as inhibition of bacterial growth at 6.2 uM incubated for 16 hrs relative to control; type: functional
[23] = tested on: Mycolicibacterium smegmatis; test: Antimycobacterial activity against Mycobacterium smegmatis MC2 155 assessed as reduction in trehalose monomycolates level at 6.2 uM incubated for 16 hrs by TLC analysis; type: functional, organism-based
[24] = tested on: Mycolicibacterium smegmatis; test: Antimycobacterial activity against Mycobacterium smegmatis MC2 155 assessed as reduction in trehalose dimycolates level at 6.2 uM incubated for 16 hrs by TLC analysis; type: functional, organism-based
[25] = tested on: Mycolicibacterium smegmatis; test: Antimycobacterial activity against Mycobacterium smegmatis MC2 155 assessed as reduction in cell wall bound mycolic acid methyl esters at 6.2 uM incubated for 16 hrs by TLC analysis; type: functional, organism-based
[26] = tested on: Mycolicibacterium smegmatis; test: Antimycobacterial activity against Mycobacterium smegmatis MC2 155 assessed as reduction in phosphatidylethanolamine synthesis at 6.2 uM incubated for 16 hrs by TLC analysis; type: functional, organism-based
[27] = tested on: Mycolicibacterium smegmatis; test: Disruption of trans-membrane electrical charge gradient of proton motive force in Mycobacterium smegmatis by DiSC3(5)-probe based fluorescence assay; type: functional, organism-based
[28] = tested on: Mycobacterium tuberculosis; test: Antimycobacterial activity against 14C acetate-labeled Mycobacterium tuberculosis H37Ra assessed as reduction in trehalose dimycolates level at 3.7 uM incubated for 24 hrs by autoradiography based TLC analysis; type: functional, organism-based
[29] = tested on: Mycobacterium tuberculosis; test: Antimycobacterial activity against 14C acetate-labeled Mycobacterium tuberculosis H37Ra assessed as reduction in trehalose monomycolates level at 3.7 uM incubated for 24 hrs by autoradiography based TLC analysis; type: functional, organism-based

N#CC(C#N)=NNc1cccc(Cl)c1 [CARBONYL CYANIDE M-CHLOROPHENYLHYDRAZONE]
inhibition at 2 µM [1]: 0.2% | inhibition at 5 µM [2]: 9% | inhibition at 10 µM [3]: 66% | Activity [4]: Active

CCCCCCCCC(=O)N1CCC(C2c3ccccc3-c3ccccc32)C1 (stereo unspecified)
MIC [5]: 21.3 µM and 8 µg/mL

O=C1C(C2c3ccccc3-c3ccccc32)CCN1CCc1ccccc1 (stereo unspecified)
MIC [5]: 1 µg/mL and 2.8 µM

CCCCCCCCCN1CCC(C2c3ccccc3-c3ccccc32)C1 (stereo unspecified)
MIC [5]: 1 µg/mL and 2.8 µM

CCCCCCCCC(=O)N1CCC(C2c3ccccc3-c3ccccc32)C1=O (stereo unspecified)
MIC [5]: 4 µg/mL and 10.3 µM

CCCCCCCCCN1CCC(C2c3ccccc3-c3ccccc32)C1=O (stereo unspecified)
MIC [5]: 5 µg/mL and 13.3 µM | Activity (MRC5): Non-Toxic

O=C1C(C2c3ccccc3-c3ccccc32)CCN1c1cc(Cl)cc(Cl)c1 (stereo unspecified)
Activity ([5]; time 21.0 day): inactive | inhibition [6]: inactive

O=C(c1ccccc1)N1CCC(C2c3ccccc3-c3ccccc32)C1 (stereo unspecified)
inhibition [7]: 50% | MIC [5]: > 16 µg/mL

Clc1ccc(CN2CCC(C3c4ccccc4-c4ccccc43)C2)cc1 (stereo unspecified)
MIC [5]: 1.4 µM and 0.5 µg/mL | CC50 at 72 h [8]: 35 µM | inhibition at 42 µM [9]: 43% | inhibition at 84 µM [10]: 48% | Activity [11]: Active | Activity [12]: inactive | Activity [13]: Active | inhibition at 16.8 µM [14]: 57% | Activity [15]: inactive | Activity [16]: Active | Activity [17]: Active | Activity [18]: Active | Activity [19]: inactive | inhibition (Escherichia coli [20]): Dose-Dependent Effect | Activity (Escherichia coli [21]): Active

O=C(c1ccccc1)N1CCC(C2c3ccccc3-c3ccccc32)C1=O (stereo unspecified)
MIC [5]: > 45 µM and > 16 µg/mL

O=C(Nc1ccc(F)c(F)c1F)NC12CC3CC(CC(C3)C1)C2
inhibition at 6.2 µM [22]: 60% | Activity [23]: inactive | Activity [24]: Active | Activity [25]: Active | Activity [26]: Active | Activity [27]: inactive

c1ccc(CN2CCC(C3c4ccccc4-c4ccccc43)C2)cc1 (stereo unspecified)
MIC [5]: 5 µg/mL and 15.4 µM

c1ccc(CCN2CCC(C3c4ccccc4-c4ccccc43)C2)cc1 (stereo unspecified)
MIC [5]: 14.7 µM and 5 µg/mL | CC50 at 72 h [8]: 18.9 µM

O=C1C(C2c3ccccc3-c3ccccc32)CCN1c1ccc(F)cc1 (stereo unspecified)
MIC [5]: 14.6 µM and 5 µg/mL

NNC(=O)c1ccncc1 [ISONIAZID]
MIC [5]: 0.025 µg/mL (≈ 0.182 µM) | Activity [28]: Active | Activity [29]: Active

O=C(c1ccc2[nH]ccc2c1)N1CCN(C2c3ccccc3-c3ccccc32)CC1
MIC [5]: > 16 µg/mL and > 40.7 µM

O=C1C(C2c3ccccc3-c3ccccc32)CCN1Cc1ccc(Cl)cc1 (stereo unspecified)
MIC [5]: 69 µM and 25 µg/mL | Activity (MRC5): Non-Toxic

Oc1cc(Cl)ccc1Oc1ccc(Cl)cc1Cl [TRICLOSAN]
MIC [5]: 34.5 µM and 10 µg/mL

Clc1cc(Cl)cc(N2CCC(C3c4ccccc4-c4ccccc43)C2)c1 (stereo unspecified)
MIC [5]: 66 µM and 25 µg/mL | Activity (MRC5): Non-Toxic

Fc1ccc(N2CCC(C3c4ccccc4-c4ccccc43)C2)cc1 (stereo unspecified)
MIC [5]: 15.2 µM and 5 µg/mL

O=C1C(C2c3ccccc3-c3ccccc32)CCN1Cc1ccccc1 (stereo unspecified)
MIC [5]: > 74 µM and > 25 µg/mL
